How the values were obtained:
Assay type in all cases: cell-based, human
[1] = tested on: adipose-derived stem cells (ASCs); experiment: Osteogenic differentiation of ASCs with transient cytokine exposure; conditions: IL-1β only for the first two days, then cultured without it
Description: In each case, the cytokine was provided for the first two days of culture and removed for the remaining 19 days. The samples are stained for calcium deposition (red) which is indicative of new bone formation;
Accordingly, cells were provided with IL-1β only for the first two days and cultured in the absence of IL-1β for the remaining three weeks of culture.

ASCs [2] = experiment: Vascularized bone co-development: encapsulated ASC spheroids, VM 8 days then OM 12 days
Protocol: (§1) Settled spheroid pellets were resuspended in fibrinogen (8 mg/mL final; Sigma), followed by the addition of thrombin (2.5 U/mL final; Sigma) to initiate gelation. Fibrin gels (35 μL) containing 40 spheroids each (in the aggregation study the number of spheroids per gel was varied to keep the total cell number constant) were pipetted into 6-mm diameter wells and incubated at 37° C. for 30 minutes to allow complete gelation prior to the addition of culture medium. Samples were then cultured for two to three weeks, depending on the experiment, with media changed every other day.
(§2) Vascular medium (VM) consisted of: Endothelial Basal Medium-2 (Lonza), 6% FBS, 1% penicillin/streptomycin, 10 ng/mL VEGF165, 1 ng/mL FGF-2, and 1 μg/mL L-ascorbic acid-2-phosphate (Sigma). For monolayer osteogenic differentiation experiments, control medium consisted of low glucose DMEM (GIBCO Invitrogen), 6% FBS, and 1% penicillin/streptomycin; Osteogenic Medium (OM) consisted of control medium plus 10 mM β-glycerophosphate (Sigma) and 50 μM L-ascorbic acid-2-phosphate. For osteogenic differentiation in fibrin gels, OM also included 10 ng/mL VEGF165 and 1 ng/mL FGF-2 to support vascular viability. […] All growth factors were purchased from PeproTech.
(§3) For monolayer experiments, ASCs were seeded at 5000 cells/cm^2 and cultured in either control medium or OM for 21 days, with the addition of either PDGF-BB or PDGF receptor inhibitor tyrphostin AG1295 (Santa Cruz Biotechnology). Mineralization was assessed via Alizarin Red S staining and quantification of calcium content. For fibrin gel experiments, samples were cultured in VM for up to 8 days followed by up to 12 days of OM supplemented with VEGF and FGF-2. Mineralization was assessed via quantification of calcium content normalized to DNA content. For Alizarin Red S staining, monolayers were washed twice with PBS, fixed with 3.7% formaldehyde for 20 min, and then washed again three times. Samples were subsequently incubated for 10 min with 40 mM Alizarin Red S (Sigma) and washed extensively prior to imaging. To quantify calcium content in each sample, monolayers or whole fibrin gels were washed twice with PBS and then incubated with 0.5 N HCl overnight at 4° C. with agitation. Calcium content in the sample supernatants was quantified using a colorimetric Calcium LiquiColor Test (Stanbio). DNA content was quantified using a PicoGreen dsDNA quantitation kit (Molecular Probes) as previously described. Hutton D. L., et al., Tissue Eng Part A 18, 1729-40, 2012.
(§4) All incubation and washing steps were carried out at 4° C. with gentle agitation. Samples were fixed with 3.7% formaldehyde for 3 hrs, and then washed with PBS three times for 30 min each. Fixed gels were carefully removed from their wells and transferred to microcentrifuge tubes for subsequent staining procedures. Gels were permeabilized and blocked for 4 hrs with 0.2% triton X-100 and 5% normal goat serum (Sigma) in PBS with 0.1% Tween (PTw). Samples were then incubated overnight with primary antibodies diluted in blocking solution, followed by three 1-hr washes in PTw. Primary antibodies included: mouse anti-CD31 (4 μg/mL; Santa Cruz Biotechnology) and either rabbit anti-laminin (7 μg/mL; Sigma), rabbit anti-osteocalcin (10 μg/mL; Santa Cruz Biotechnology), or rabbit anti-NG2 (10 μg/mL; Millipore). Samples were then incubated overnight with DyLight 488-conjugated goat anti-mouse and DyLight 649-conjugated goat anti-rabbit (both 1:400; Jackson ImmunoResearch) diluted in blocking solution, followed by three 1-hr washes in PTw. Lastly, samples were blocked in 5% normal mouse serum for 4 hrs, incubated overnight with Cy3-conjugated mouse anti-αSMA (7 μg/mL; Sigma), and then washed three times for 1 hr each. Gels were mounted in 70% glycerol in chamber slides and imaged using a Zeiss LSM 510 confocal microscope with a 5× objective.

ASCs [3] = experiment: Monolayer osteogenic differentiation of ASCs (Alizarin Red S, calcium quantification); conditions: for calcium deposition per cell / total calcium deposition: ASCs in OM for 21 days, PDGF-BB 0, 2, 20 ng/mL or AG1295 0, 1, 10 μM
Protocol: as §2, with “viability. The composition of FGF-2 and dexamethasone in VM and OM were optimized to support both vascular and osteogenic development (FIG. 2).” for “viability.”
as §3
The effects of exogenous PDGF-BB on osteogenic differentiation and vascular morphogenesis of ASCs were studied independently. ASCs were cultured in OM for 21 days with the addition of either PDGF-BB (0 ng/mL, 2 ng/mL, or 20 ng/mL) or PDGF receptor inhibitor AG1295 (0 μM, 1 μM, or 10 μM).

ASCs [4] = experiment: Vascular morphogenesis of fibrin-encapsulated ASC spheroids in vascular medium
Protocol: Cells were trypsinized and resuspended at a concentration of 400,000 cells/mL (this concentration varied in the aggregation study where different cluster sizes were being compared) in culture medium containing 0.24% (w/v) methylcellulose (Sigma). The cell suspension was pipetted as 10 μL drops onto inverted Petri dish caps, which were then reverted and placed on dish bottoms containing sterile water to reduce evaporation. Dishes were incubated at 37° C. overnight to allow cellular aggregation at the air-liquid interface. The dish caps were then flooded with PBS to allow bulk collection and transfer of the spheroids to conical tubes.
as §1
as §2, with “viability. The composition of FGF-2 and dexamethasone in VM and OM were optimized to support both vascular and osteogenic development (FIG. 2).” for “viability.”
as §4
Confocal z-stacks of immunostained gels were z-projected and thresholded for subsequent quantification of vessel network parameters (n=6 images per group). Thresholded images were analyzed with AngioQuant software, Niemisto A., et al., IEEE Trans Med Imaging 24, 549-53, 2005, to quantify total vessel length, area, and interconnectivity. ImageJ software (NIH) was used to quantify pericyte coverage of vessels, which was defined as αSMA+ area within at least 5 μm of the abluminal face of vessel networks. […]

[5] = medium optimization with dexamethasone and FGF-2

## IL-1β: pro-inflammatory cytokine
[1]
  ASC differentiation into bone-forming cells: dose dependent effect

## PDGF-BB: exogenous platelet-derived growth factor-BB, dimeric glycoprotein of two B chains, purchased from PeproTech
ASCs [2]; 20 ng/mL
  calcium content versus control group (VM-OM): substantially greater than both
  vascular network length versus control group (VM-OM): substantially greater than both
ASCs [2]; 20 ng/mL each
  calcium deposition, PDGF-BB greater than BMP-2: 4.2 fold
  calcium per cell, PDGF-BB greater than BMP-2: 5.6 fold
  total vascular network length, PDGF-BB higher than BMP-2: 2.3 fold
ASCs [2]; 20 ng/mL throughout
  calcium content per cell, greater than without PDGF-BB: 5.2 fold
  osteocalcin production (semiquantitative), greater than without PDGF-BB: 1.4 fold
  vascular network length, greater than without PDGF-BB: 2.7 fold
  αSMA intensity, less than without PDGF-BB: 2.1 fold
ASCs [3]
  calcium deposition per cell: significantly increased in a dose-dependent manner
  total calcium deposition: significantly increased in a dose-dependent manner
ASCs [4]; 2 ng/mL, VM for 14 days
  increase in total vessel length: 1.4 fold
ASCs [4]; 20 ng/mL, VM for 14 days
  vessel width: noticeably wider
ASCs [4]; VM for 14 days
  effect on total vessel length overall: did not have statistically significant effects
  reduction of pericyte coverage: 2.9 fold

## FGF-2: fibroblast growth factor-2 (PeproTech)
ASCs [3]; 1 ng/mL FGF-2, dexamethasone 0 nM to 10 nM
  calcium deposition in osteogenic cultures: significantly greater calcium deposition
ASCs [4]; [5]
  pericyte coverage in vascular cultures: slight increase
  vessel network growth / length in vascular cultures: slight increase
  vessel width in vascular cultures: increased vessel width

## Cc1cc2ncc(-c3ccccc3)nc2cc1C [AG1295, tyrphostin AG1295, reference compound]
ASCs [3]
  calcium deposition per cell: unchanged relative to the OM only group
  total calcium deposition: decreased in a dose dependent manner
ASCs [4]; VM for 14 days
  pericyte coverage: only slightly reduced

Source: US20160095958A1, “BONE REGENERATION USING STROMAL VASCULAR FRACTION, PLATELET-DERIVED GROWTH FACTOR-RICH HYDROGEL, THREE-DIMENSIONAL PRINTED POLY-EPSILON-CAPROLACTONE SCAFFOLDS” (THE JOHNS HOPKINS UNIVERSITY, priority 2013, published 2016)
